# Reference: patent publication US5543415A, “Antidepressants” (Kyowa Hakko Kogyo Co., Ltd., priority 1992, dated 1996)
# System: ddY-strain male mice
# Assay: Acute Toxicity Test (minimum lethal dose, oral)
# Assay type: in vivo
# Conditions: seven days after administration
# Description: Test compounds were orally administered to groups of ddY-strain male mice weighing 20±1 g, each group consisting of three mice. Seven days after the administration, minimum lethal dose (MLD) of each compound was determined by observing the mortality.
row,SMILES,MLD (minimum lethal dose) [mg/kg]
1,"CCn1c(=O)c2[nH]c(/C=C/c3ccccc3OC)nc2n(CC)c1=O [Compound 157, (E)-1,3-Diethyl-8-(2-methoxystyryl)xanthine]",> 100
2,"CCn1c(=O)c2[nH]c(/C=C/c3ccc(F)cc3)nc2n(CC)c1=O [Compound 149, (E)-1,3-Diethyl-8-(4-fluorostyryl)xanthine]",> 100
3,"CCCn1c(=O)c2c(nc(/C=C/c3cc(Br)c(OC)c(OC)c3)n2C)n(CCC)c1=O [Compound 61, (E)-8-(3-Bromo-4,5-dimethoxystyryl)-7-methyl-1,3-dipropylxanthine]",> 100
4,"COc1cc(C)c(/C=C/c2nc3c(c(=O)n(C)c(=O)n3C)n2C)cc1C [Compound 102, (E)-8-(4-Methoxy-2,5-dimethylstyryl)caffeine]",> 100
5,"CCn1c(=O)c2c(nc(/C=C/c3ccc(OCCCCN=[N+]=[N-])cc3)n2C)n(CC)c1=O [Compound 187, (E)-8-[4-(4-Azidobutoxy)styryl]-1,3-diethyl-7-methylxanthine]",> 100
6,"COc1ccc(/C=C/c2nc3c(c(=O)n(C)c(=O)n3C)n2C)c(C)c1C [Compound 94, (E)-8-(4-Methoxy-2,3-dimethylstyryl)caffeine]",> 100
7,"CCCn1c(=O)c2c(nc(/C=C/c3cc(OC)c(OC)cc3OC)n2C)n(CCC)c1=O [Compound 24, (E)-7-Methyl-1,3-dipropyl-8-(2,4,5-trimethoxystyryl)xanthine]",> 300
8,"CCCOc1ccc(/C=C/c2nc3c(c(=O)n(CCC)c(=O)n3CCC)n2C)cc1 [Compound 51, (E)-7-Methyl-8-(4-propoxystyryl)-1,3-dipropylxanthine]",> 300
9,"CCn1c(=O)c2c(nc(/C=C/c3cccc(Oc4ccccc4)c3)n2C)n(CC)c1=O [Compound 192, (E)-1,3-Diethyl-7-methyl-8-(3-phenoxystyryl)xanthine]",> 100
10,"CCn1c(=O)c2c(nc(/C=C/c3cccc(OC)c3[N+](=O)[O-])n2C)n(CC)c1=O [Compound 122, (E)-1,3-Diethyl-8-(3-methoxy-2-nitrostyryl)-7-methyl-xanthine]",> 100
11,"CCn1c(=O)c2c(nc(/C=C/c3cc(OC)c(OC)cc3[N+](=O)[O-])n2C)n(CC)c1=O [Compound 120, (E)-8-(4,5-Dimethoxy-2-nitrostyryl)-1,3-diethyl-7-methylxanthine]",> 300
12,"CCCn1c(=O)c2[nH]c(/C=C/c3ccc(OC)cc3OC)nc2n(CCC)c1=O [Compound 25, (E)-8-(2,4-Dimethoxystyryl)-1,3-dipropylxanthine]",> 100
13,"CCCOc1ccc(/C=C/c2nc3c([nH]2)c(=O)n(CC)c(=O)n3CC)cc1 [Compound 125, (E)-1,3-Diethyl-8-(4-propoxystyryl)xanthine]",> 100
14,"CCn1c(=O)c2c(nc(/C=C/c3cc(C)ccc3C)n2C)n(CC)c1=O [Compound 110, (E)-8-(2,5-Dimethylstyryl)-1,3-diethyl-7-methylxanthine]",> 300
15,"CCCCn1c(=O)c2c(nc(/C=C/c3cc(OC)c(OC)c(OC)c3)n2C)n(CCCC)c1=O [Compound 9, (E)-1,3-Dibutyl-7-methyl-8-(3,4,5-trimethoxystyryl)xanthine]",> 300
16,"COc1ccc(/C=C/c2nc3c(c(=O)n(C)c(=O)n3C)n2C)c(Cl)c1OC [Compound 108, (E)-8-(2-Chloro-3,4-dimethoxystyryl)caffeine]",> 300
17,"CCCn1c(=O)c2nc(/C=C/c3cc(OC)cc(OC)c3)[nH]c2n(CCC)c1=O [Compound 33, (E)-8-(3,5-Dimethoxystyryl)-1,3-dipropylxanthine]",> 100
18,"CCn1c(=O)c2c(nc(/C=C/c3ccc(F)c(F)c3)n2C)n(CC)c1=O [Compound 112, (E)-8-(3,4-Difluorostyryl)-1,3-diethyl-7-methylxanthine]",> 300
19,"CCCn1c(=O)c2nc(/C=C/c3cccc(Cl)c3)[nH]c2n(CCC)c1=O [Compound 39, (E)-8-(3-Chlorostyryl)-1,3-dipropylxanthine]",> 100
20,"COc1ccc(/C=C/c2nc3c(c(=O)n(C)c(=O)n3C)n2C)c(OC)c1C [Compound 104, (E)-8-(2,4-Dimethoxy-3-methylstyryl)caffeine]",> 100
21,"CCn1c(=O)c2[nH]c(/C=C/c3ccc(OC)c(C)c3OC)nc2n(CC)c1=O [Compound 85, (E)-8-(2,4-Dimethoxy-3-methylstyryl)-1,3-diethylxanthine]",> 300
22,"COc1ccc(/C=C/c2nc3c([nH]2)c(=O)n(C)c(=O)n3C)c(Cl)c1OC [Compound 107, (E)-8-(2-Chloro-3,4-dimethoxystyryl)theophylline]",> 100
23,"CCn1c(=O)c2c(nc(/C=C/c3ccc(OCC(=O)O)cc3)n2C)n(CC)c1=O [Compound 190, (E)-8-(4-Carboxymethoxystyryl)-1,3-diethyl-7-methylxanthine]",> 100

row,SMILES,MLD (minimum lethal dose) [mg/kg]
1,"CCCn1c(=O)c2c(nc(/C=C/c3ccc(OC)c(OC)c3)n2CC)n(CCC)c1=O [Compound 66, (E)-8-(3,4-Dimethoxystyryl)-7-ethyl-1,3-dipropylxanthine]",> 300
2,"COc1ccc(/C=C/c2nc3c(=O)n(C)c(=O)n(C)c3[nH]2)c(OC)c1OC [Compound 91, (E)-8-(2,3,4-Trimethoxystyryl)theophylline]",> 300
3,"CCCn1c(=O)c2[nH]c(/C=C/c3ccc(C)c(C)c3)nc2n(CCC)c1=O [Compound 31, (E)-8-(3,4-Dimethylstyryl)-1,3-dipropylxanthine]",> 100
4,"CCCn1c(=O)c2c(nc(/C=C/c3ccc(C)c(C)c3)n2C)n(CCC)c1=O [Compound 32, (E)-8-(3,4-Dimethylstyryl)-7-methyl-1,3-dipropylxanthine]",> 300
5,"CCn1c(=O)c2[nH]c(/C=C/c3cccc(OC)c3)nc2n(CC)c1=O [Compound 139, (E)-1,3-Diethyl-8-(3-methoxystyryl)xanthine]",> 100
6,"C=CCn1c(=O)c2[nH]c(/C=C/c3ccc(OC)c(OC)c3)nc2n(CC=C)c1=O [Compound 69, (E)-1,3-Diallyl-8-(3,4-dimethoxystyryl)xanthine]",> 100
7,"CCn1c(=O)c2[nH]c(/C=C/c3ccc4c(c3)OCCO4)nc2n(CC)c1=O [Compound 89, (E)-8-[2-(1,4-Benzodioxan-6-yl)vinyl]-1,3-diethylxanthine]",> 100
8,"CCn1c(=O)c2[nH]c(/C=C/c3ccc(F)c(F)c3)nc2n(CC)c1=O [Compound 111, (E)-8-(3,4-Difluorostyryl)-1,3-diethylxanthine]",> 300
9,"CCn1c(=O)c2c(nc(/C=C/c3ccc(OCOC)cc3)n2C)n(CC)c1=O [Compound 146, (E)-1,3-Diethyl-8-(4-methoxymethoxystyryl)-7-methylxanthine]",> 100
10,"CCn1c(=O)c2[nH]c(/C=C/c3ccc(OC)c(C)c3C)nc2n(CC)c1=O [Compound 81, (E)-1,3-Diethyl-8-(4-methoxy-2,3-dimethylstyryl)xanthine]",> 300
11,"CCn1c(=O)c2c(nc(/C=C/c3cccc(OC)c3)n2C)n(CC)c1=O [Compound 140, (E)-1,3-Diethyl-8-(3-methoxystyryl)-7-methylxanthine]",> 300
12,"CCn1c(=O)c2[nH]c(/C=C/c3cc(OC)c(OC)cc3[N+](=O)[O-])nc2n(CC)c1=O [Compound 119, (E)-8-(4,5-Dimethoxy-2-nitrostyryl)-1,3-diethylxanthine]",> 100
13,"CCn1c(=O)c2c(nc(/C=C/c3cc(F)cc(F)c3)n2C)n(CC)c1=O [Compound 156, (E)-8-(3,5-Difluorostyryl)-1,3-diethyl-7-methylxanthine]",> 100
14,"CCn1c(=O)c2[nH]c(/C=C/c3cccc(OC(F)(F)F)c3)nc2n(CC)c1=O [Compound 143, (E)-1,3-Diethyl-8-(3-trifluoromethoxystyryl)xanthine]",> 100
15,"CCCn1c(=O)c2c(nc(/C=C/c3ccc(OCC)c(OCC)c3)n2C)n(CCC)c1=O [Compound 55, (E)-8-(3,4-Diethoxystyryl)-7-methyl-1,3-dipropylxanthine]",> 100
16,"CCn1c(=O)c2[nH]c(/C=C/c3cc(C)c(OC)cc3C)nc2n(CC)c1=O [Compound 83, (E)-1,3-Diethyl-8-(4-methoxy-2,5-dimethylstyryl)xanthine]",> 300
17,"CCCn1c(=O)c2nc(/C=C/c3cc(OC)c(OC)c(OC)c3)[nH]c2n(CCC)c1=O [Compound 10, (E)-1,3-dipropyl-8-(3,4,5-trimethoxystyryl)xanthine]",> 300
18,"CCn1c(=O)c2[nH]c(/C=C/c3cc(OC)c(OC)cc3Br)nc2n(CC)c1=O [Compound 117, (E)-8-(2-Bromo-4,5-dimethoxystyryl)-1,3-diethylxanthine]",> 100
19,"CCn1c(=O)c2c(nc(/C=C/c3cc4c(cc3Br)OCO4)n2C)n(CC)c1=O [Compound 166, (E)-8-(2-Bromo-4,5-methylenedioxystyryl)-1,3-diethyl-7-methylxanthine]",> 100
20,"CCn1c(=O)c2[nH]c(/C=C/c3ccc(C(F)(F)F)cc3)nc2n(CC)c1=O [Compound 135, (E)-1,3-Diethyl-8-(4-trifluoromethylstyryl)xanthine]",> 100
21,"CCn1c(=O)c2[nH]c(/C=C/c3ccc(OC)c(F)c3)nc2n(CC)c1=O [Compound 172, (E)-1,3-Diethyl-8-(3-fluoro-4-methoxystyryl)xanthine]",> 100
22,"CCCOc1ccc(/C=C/c2nc3c([nH]2)c(=O)n(CCC)c(=O)n3CCC)cc1 [Compound 50, (E)-8-(4-Propoxystyryl)-1,3-dipropylxanthine]",> 100
